Experimental data published in patent US8618094B2, “Fused substituted aminopyrrolidine derivative” (Daiichi Sankyo Company, Limited, priority 2007, dated 2013).
Converted amounts (≈) assume the structure as drawn. Read-outs that look alike come from different tables or passages of the source.

Legend:
[1] = test system: P. aeruginosa PAO1; test: Antibacterial activity (MIC), standard method of the Japanese Society of Chemotherapy; assay type: cell-based; conditions: Pseudomonas aeruginosa
Method: (§1) Antibacterial activity of the compounds of the present invention was measured in accordance with the standard method specified by the Japanese Society of Chemotherapy.

[2] = test system: S. pneumoniae 104835; test: as above; assay type: cell-based; conditions: Streptococcus pneumoniae
Method: as §1

[3] = test system: S. marcescens 10100; test: as above; assay type: cell-based; conditions: Serratia marcescens
Method: as §1

[4] = test system: S. pyogenes JCM5674(ATCC12344); test: as above; assay type: cell-based; conditions: Streptococcus pyogenes
Method: as §1

[5] = test system: P. mirabilis 08103; test: as above; assay type: cell-based; conditions: Proteus mirabilis
Method: as §1

[6] = test system: H. influenzae ATCC49247; test: as above; assay type: cell-based; conditions: Haemophilus influenzae
Method: as §1

[7] = test system: S. epidermidis 56500; test: as above; assay type: cell-based; conditions: Staphylococcus epidermidis
Method: as §1

[8] = test system: E. faecalis 19433; test: as above; assay type: cell-based; conditions: Enterococcus faecalis
Method: as §1

[9] = test system: S. aureus 870307; test: as above; assay type: cell-based; conditions: Staphylococcus aureus
Method: as §1

[10] = test system: E. cloacae 03400; test: as above; assay type: cell-based; conditions: Enterobacter cloacae
Method: as §1

[11] = test system: K. pneumoniae TYPE 1; test: as above; assay type: cell-based; conditions: Klebsiella pneumoniae, TYPE1
Method: as §1

[12] = test system: S. pneumoniae J24; test: as above; assay type: cell-based; conditions: Streptococcus pneumoniae
Method: as §1

[13] = test system: E. coli NIHJ; test: as above; assay type: cell-based; conditions: Escherichia coli
Method: as §1

[14] = test system: S. aureus FDA 209-P; test: as above; assay type: cell-based; conditions: Staphylococcus aureus, FDA209
Method: as §1

[15] = test system: M(B). Caterrhalis ATCC25238; test: as above; assay type: cell-based
Method: as §1

[16] = test system: mouse bone marrow; test: Mouse bone marrow micronucleus test after intravenous administration; assay type: in vivo
Source text: The compound represented by the formula 365 was confirmed to be positive for induction of micronuclei in a mouse bone marrow micronucleus test after intravenous administration.

[17] = Mouse phototoxicity test after intravenous administration; assay type: in vivo
[18] = H. influenzae ATCC49247 (first half of Table 2), read-out: MIC, H. influenzae ATCC49247
[19] = M(B). Caterrhalis ATCC25238 (first half of Table 2), read-out: MIC, M(B). Caterrhalis ATCC25238
[20] = ATCC 25238 / ATCC 49247, H. influenzae ATCC25238 as printed (second half of Table 2), read-out: MIC, H. influenzae ATCC25238
[21] = M(B). Caterrhalis [sic] ATCC49247 (Table 2), read-out: MIC, M(B). Caterrhalis ATCC49247

Row | Structure (SMILES) | MIC [1] [µg/mL] | MIC [2] [µg/mL] | MIC [3] [µg/mL] | MIC [4] [µg/mL] | MIC [5] [µg/mL] | MIC [6, 18] [µg/mL] | MIC [7] [µg/mL] | MIC [8] [µg/mL] | MIC [9] [µg/mL] | MIC [10] [µg/mL] | MIC [11] [µg/mL] | MIC [12] [µg/mL] | MIC [13] [µg/mL] | MIC [14] [µg/mL] | MIC [15, 19] [µg/mL] | induction of micronuclei [16] | phototoxicity [17] | melting point | MIC [6, 20] [µg/mL] | MIC [15, 21] [µg/mL]
1 | COc1c(N2C[C@@H]3CCC[C@]3(N)C2)c(F)cc2c(=O)c(C(=O)O)cn([C@@H]3C[C@@H]3F)c12 (single isomer, unassigned) [Example 11, 7-{(1R*,5S*)-1-Amino-3-azabicyclo[3.3.0]octan-3-yl}-6-fluoro-1-[(1R,2S)-2-fluorocyclopropyl]-8-methoxy-1,4-dihydro-4-oxoquinoline-3-carboxylic acid] | 0.78 (≈ 1.86 µM) | 0.39 (≈ 0.93 µM) | 0.1 (≈ 0.238 µM) | 0.025 (≈ 0.0596 µM) | 0.05 (≈ 0.119 µM) | 0.006 (≈ 0.0143 µM) | 0.05 (≈ 0.119 µM) | 0.1 (≈ 0.238 µM) | 0.78 (≈ 1.86 µM) | 0.012 (≈ 0.0286 µM) | 0.1 (≈ 0.238 µM) | 0.05 (≈ 0.119 µM) | 0.025 (≈ 0.0596 µM) | 0.012 (≈ 0.0286 µM) | 0.025 (≈ 0.0596 µM) | negative | negative | 169 to 172 °C | – | –
2 | COc1c(N2C[C@H]3C4(CC4)C[C@@]3(N)C2)c(F)cc2c(=O)c(C(=O)O)cn([C@@H]3C[C@@H]3F)c12 [Example 10, 7-[(1S,5R)-1-Amino-6-spirocyclopropane-3-azabicyclo[3.2.0]heptan-3-yl]-1-[(1R,2S)-2-fluorocyclopropyl]-6-fluoro-1,4-dihydro-8-methoxy-4-oxoquinoline-3-carboxylic acid] | 0.78 (≈ 1.81 µM) | 0.2 (≈ 0.464 µM) | 0.2 (≈ 0.464 µM) | 0.025 (≈ 0.0579 µM) | 0.05 (≈ 0.116 µM) | 0.012 (≈ 0.0278 µM) | 0.025 (≈ 0.0579 µM) | 0.1 (≈ 0.232 µM) | 0.1 (≈ 0.232 µM) | 0.025 (≈ 0.0579 µM) | 0.2 (≈ 0.464 µM) | 0.025 (≈ 0.0579 µM) | 0.025 (≈ 0.0579 µM) | 0.006 (≈ 0.0139 µM) | 0.025 (≈ 0.0579 µM) | – | – | 182 to 203 °C (dec.) | – | –
3 | COc1c(N2C[C@]3(N)CCC[C@]3(F)C2)c(F)cc2c(=O)c(C(=O)O)cn([C@@H]3C[C@@H]3F)c12 [Example 15, 7-[(1R,5S)-1-Amino-5-fluoro-3-azabicyclo[3.3.0]octan-3-yl]-6-fluoro-1-[(1R,2S)-2-fluorocyclopropan-1-yl]-1,4-dihydro-8-methoxy-4-oxoquinoline-3-carboxylic acid] | 0.78 (≈ 1.78 µM) | 0.39 (≈ 0.892 µM) | 0.2 (≈ 0.457 µM) | 0.05 (≈ 0.114 µM) | 0.025 (≈ 0.0572 µM) | ≤ 0.003 | 0.05 (≈ 0.114 µM) | 0.2 (≈ 0.457 µM) | 0.39 (≈ 0.892 µM) | 0.025 (≈ 0.0572 µM) | 0.05 (≈ 0.114 µM) | 0.05 (≈ 0.114 µM) | 0.006 (≈ 0.0137 µM) | 0.012 (≈ 0.0274 µM) | 0.025 (≈ 0.0572 µM) | – | – | 191 to 195 °C (dec.) | – | –
4 | COc1c(N2C[C@H]3CC=C[C@@]3(N)C2)c(F)cc2c(=O)c(C(=O)O)cn([C@@H]3C[C@@H]3F)c12 [Example 24, 7-[(1S,5R)-1-Amino-3-azabicyclo[3.3.0]oct-7-en-3-yl]-6-fluoro-1-[(1R,2S)-2-fluorocyclopropyl]-8-methoxy-1,4-dihydro-4-oxoquinoline-3-carboxylic acid] | 0.39 (≈ 0.934 µM) | 0.39 (≈ 0.934 µM) | 0.2 (≈ 0.479 µM) | 0.1 (≈ 0.24 µM) | 0.025 (≈ 0.0599 µM) | 0.006 (≈ 0.0144 µM) | 0.1 (≈ 0.24 µM) | 0.1 (≈ 0.24 µM) | 0.78 (≈ 1.87 µM) | 0.025 (≈ 0.0599 µM) | 0.1 (≈ 0.24 µM) | 0.05 (≈ 0.12 µM) | 0.025 (≈ 0.0599 µM) | 0.025 (≈ 0.0599 µM) | 0.05 (≈ 0.12 µM) | – | – | 206 to 208 °C | – | –
5 | COc1c(N2C[C@@H]3CCOC[C@@]3(N)C2)c(F)cc2c(=O)c(C(=O)O)cn([C@@H]3C[C@@H]3F)c12 [Example 43, 7-[(1S,6S)-1-Amino-8-aza-3-oxabicyclo[4,3,0]nonan-8-yl]-6-fluoro-1-[(1R,2S)-2-fluorocyclopropyl]-1,4-dihydro-8-methoxy-4-oxoquinoline-3-carboxylic acid] | 0.78 (≈ 1.79 µM) | 0.78 (≈ 1.79 µM) | 0.2 (≈ 0.459 µM) | 0.05 (≈ 0.115 µM) | 0.025 (≈ 0.0574 µM) | – | 0.05 (≈ 0.115 µM) | 0.2 (≈ 0.459 µM) | 0.2 (≈ 0.459 µM) | 0.012 (≈ 0.0276 µM) | 0.05 (≈ 0.115 µM) | 0.1 (≈ 0.23 µM) | 0.006 (≈ 0.0138 µM) | 0.012 (≈ 0.0276 µM) | – | – | – | – | 0.006 (≈ 0.0138 µM) | 0.025 (≈ 0.0574 µM)
6 | Cc1c(N2C[C@@H]3CCOC[C@@]3(N)C2)c(F)cc2c(=O)c(C(=O)O)cn([C@@H]3C[C@@H]3F)c12 [Example 44, 7-[(1S,6S)-1-Amino-3-oxa-8-azabicyclo[4,3,0]nonan-8-yl]-6-fluoro-1-[(1R,2S)-2-fluorocyclopropyl]-1,4-dihydro-8-methyl-4-oxoquinoline-3-carboxylic acid] | 0.39 (≈ 0.93 µM) | 0.39 (≈ 0.93 µM) | 0.05 (≈ 0.119 µM) | 0.05 (≈ 0.119 µM) | 0.025 (≈ 0.0596 µM) | – | 0.025 (≈ 0.0596 µM) | 0.1 (≈ 0.238 µM) | 0.2 (≈ 0.477 µM) | 0.006 (≈ 0.0143 µM) | 0.025 (≈ 0.0596 µM) | 0.05 (≈ 0.119 µM) | ≤ 0.003 | 0.012 (≈ 0.0286 µM) | – | – | – | 159 to 161 °C | ≤ 0.003 | 0.006 (≈ 0.0143 µM)
7 | C[C@H]1COc2c(N3CCN(C)CC3)c(F)cc3c(=O)c(C(=O)O)cn1c23 [LVFX, levofloxacin, reference compound] | 0.39 (≈ 1.08 µM) | > 6.25 | 0.05 (≈ 0.138 µM) | 0.39 (≈ 1.08 µM) | 0.025 (≈ 0.0692 µM) | – | 0.39 (≈ 1.08 µM) | 0.78 (≈ 2.16 µM) | 6.25 (≈ 17.3 µM) | 0.012 (≈ 0.0332 µM) | 0.05 (≈ 0.138 µM) | 0.78 (≈ 2.16 µM) | 0.012 (≈ 0.0332 µM) | 0.1 (≈ 0.277 µM) | – | – | – | – | 0.012 (≈ 0.0332 µM) | 0.025 (≈ 0.0692 µM)
8 | N[C@@]12CCC[C@@H]1CN(c1c(F)cc3c(=O)c(C(=O)O)cn(C4CC4)c3c1F)C2 [formula 365, reference compound] | – | – | – | – | – | – | – | – | – | – | – | – | – | – | – | positive | positive | – | – | –
